Measured values: publication PMC11995724, “Antibiotic target discovery by integrated phenotypic and activity-based profiling of electrophilic fragments” (Cell chemical biology, 2025)

assay: in vitro; settings: human, hek293t cells

Going from `C=CC(=O)N1CCC(c2nc(C(=O)O)co2)CC1` [2-K03, 2-[1-(prop-2-enoyl)piperidin-4-yl]-1,3-oxazole-4-carboxylic acid] to `C=CC(=O)N1CCC(c2nc(N(C)C)no2)CC1` [2-K09, 1-{4-[3-(dimethylamino)-1,2,4-oxadiazol-5-yl]piperidin-1-yl}prop-2-en-1-one], the viability at 48 h, 25 µM rises from 99.1% to 194%.

Compared with `C=CC(=O)N1CCC(C(=O)N[C@H]2CCC[C@H]2O)CC1` [2-K04, N-[(1S,2R)-2-hydroxycyclopentyl]-1-(prop-2-enoyl)piperidine-4-carboxamide], `C=CC(=O)N1CCC(C(=O)NC2CCCc3cc(F)ccc32)CC1` (stereo not drawn) [2-K18, N-(6-fluoro-1,2,3,4-tetrahydronaphthalen-1-yl)-1-(prop-2-enoyl)piperidine-4-carboxamide] is higher in viability at 48 h, 25 µM: 84.2% for the first, 94.2% for the second.

Going from `C=CC(=O)N(Cc1ccc(Cl)o1)C1CCCC12CCOCC2` (stereo not drawn) [2-K05, N-[(5-chlorofuran-2-yl)methyl]-N-{8-oxaspiro[4.5]decan-1-yl}prop-2-enamide] to `C=CC(=O)N1CCC(C(=O)N2CCOC(c3cccc(F)c3)C2)CC1` (stereo not drawn) [2-L14, 1-{4-[2-(3-fluorophenyl)morpholine-4-carbonyl]piperidin-1-yl}prop-2-en-1-one], the viability at 48 h, 25 µM rises from 99.7% to 102%.

Compared with `C=CC(=O)N1C2CCCC1CC1(C2)NC(=O)NC1=O` (stereo not drawn) [2-K06, 9-(prop-2-enoyl)-9-azaspiro[bicyclo[3.3.1]nonane-3,4'-imidazolidine]-2',5'-dione], `C=CC(=O)Nc1ccnn1C1CCCC1` [2-K13, N-(1-cyclopentyl-1H-pyrazol-5-yl)prop-2-enamide] is lower in viability at 48 h, 25 µM: 89.2% for the first, 24% for the second.

Compared with `C=CC(=O)N1CCCCC1Cn1ccnn1` (stereo not drawn) [2-K07, 1-{2-[(1H-1,2,3-triazol-1-yl)methyl]piperidin-1-yl}prop-2-en-1-one], `C=CC(=O)N1CCCC(c2nc(C)no2)C1` (stereo not drawn) [2-K12, 1-[3-(3-methyl-1,2,4-oxadiazol-5-yl)piperidin-1-yl]prop-2-en-1-one] is higher in viability at 48 h, 25 µM: 89.3% for the first, 101% for the second.

Compared with `C=CC(=O)NCCC(=O)N1CCSC(C)CC1` (stereo not drawn) [2-K08, N-[3-(7-methyl-1,4-thiazepan-4-yl)-3-oxopropyl]prop-2-enamide], `C=CC(=O)N(CC)CC(=O)N1CCC(c2nncn2C)CC1` [2-L10, N-ethyl-N-{2-[4-(4-methyl-4H-1,2,4-triazol-3-yl)piperidin-1-yl]-2-oxoethyl}prop-2-enamide] is lower in viability at 48 h, 25 µM: 91.8% for the first, 72.6% for the second.

Going from `C=CC(=O)N(C)CC(=O)N1CCn2cccc2C1C` (stereo not drawn) [2-K10, N-methyl-N-(2-{1-methyl-1H,2H,3H,4H-pyrrolo[1,2-a]pyrazin-2-yl}-2-oxoethyl)prop-2-enamide] to `C=CC(=O)N(C)CC(=O)N1CCN(c2ccccc2[N+](=O)[O-])CC1` [2-L04, N-methyl-N-{2-[4-(2-nitrophenyl)piperazin-1-yl]-2-oxoethyl}prop-2-enamide], the viability at 48 h, 25 µM falls from 101% to 83.6%.

Going from `C=CC(=O)Nc1ccc(F)c(-n2nnnc2C)c1` [2-K11, N-[4-fluoro-3-(5-methyl-1H-1,2,3,4-tetrazol-1-yl)phenyl]prop-2-enamide] to `C=CC(=O)Nc1ccc2nc(O)n(C3CC3)c2c1` [2-K16, N-(1-cyclopropyl-2-hydroxy-1H-1,3-benzodiazol-6-yl)prop-2-enamide], the viability at 48 h, 25 µM falls from 195% to 83.3%.

Going from `C=CC(=O)NC(Cc1ccccc1)c1ccccn1` (stereo not drawn) [2-K14, N-[2-phenyl-1-(pyridin-2-yl)ethyl]prop-2-enamide] to `C=CC(=O)NC1CCCN(Cc2ccccc2)C1=O` (stereo not drawn) [2-L13, N-(1-benzyl-2-oxopiperidin-3-yl)prop-2-enamide], the viability at 48 h, 25 µM falls from 113% to 60.1%.

Going from `C=CC(=O)N1CCC(C(=O)Nc2nc3cc(F)c(C)cc3s2)CC1` [2-K15, N-(5-fluoro-6-methyl-1,3-benzothiazol-2-yl)-1-(prop-2-enoyl)piperidine-4-carboxamide] to `C=CC(=O)N1CCC(NC(=O)c2oc(C)cc2C)CC1` [2-K17, 3,5-dimethyl-N-[1-(prop-2-enoyl)piperidin-4-yl]furan-2-carboxamide], the viability at 48 h, 25 µM falls from 191% to 79.7%.

First: C=CC(=O)N[C@H]1CCO[C@@H]1c1ccnn1C [2-K19, N-[(2S,3S)-2-(1-methyl-1H-pyrazol-5-yl)oxolan-3-yl]prop-2-enamide]
Second: C=CC(=O)NCCn1cc(C2CCOC2)cn1 (stereo not drawn) [2-L09, N-{2-[4-(oxolan-3-yl)-1H-pyrazol-1-yl]ethyl}prop-2-enamide]
The viability at 48 h, 25 µM of the first is higher: 96.4% for the first, 53.7% for the second.

Compared with `C=CC(=O)N1CCC(C(=O)N(C)C(C)CC(N)=O)CC1` (stereo not drawn) [2-K20, 3-{N-methyl-1-[1-(prop-2-enoyl)piperidin-4-yl]formamido}butanamide], `C=CC(=O)N1CCC(C(=O)N(CC)Cc2occc2C)CC1` [2-L08, N-ethyl-N-[(3-methylfuran-2-yl)methyl]-1-(prop-2-enoyl)piperidine-4-carboxamide] is higher in viability at 48 h, 25 µM: 88.3% for the first, 88.8% for the second.

Compared with `C=CC(=O)Nc1ccc(C(=O)NCC2CSCCS2)cc1` (stereo not drawn) [2-K21, N-[(1,4-dithian-2-yl)methyl]-4-(prop-2-enamido)benzamide], `C=CC(=O)Nc1ccc(C(=O)N(C)C[C@@H]2CCC(=O)N2)cc1` [2-L18, N-methyl-N-{[(2S)-5-oxopyrrolidin-2-yl]methyl}-4-(prop-2-enamido)benzamide] is higher in viability at 48 h, 25 µM: 91.9% for the first, 98.8% for the second.

First: C=CC(=O)N(C)Cc1nc2c(n1C)CCCC2 [2-K22, N-methyl-N-[(1-methyl-4,5,6,7-tetrahydro-1H-1,3-benzodiazol-2-yl)methyl]prop-2-enamide]
Second: C=CC(=O)NCc1noc2c1CC(C)(C)CC2 [2-L07, N-[(5,5-dimethyl-4,5,6,7-tetrahydro-1,2-benzoxazol-3-yl)methyl]prop-2-enamide]
The viability at 48 h, 25 µM of the first is higher: 87.1% for the first, 60% for the second.

Going from `C=CC(=O)NC1(Cc2nnc3ccccn23)CCCCC1` [2-L03, N-[1-({[1,2,4]triazolo[4,3-a]pyridin-3-yl}methyl)cyclohexyl]prop-2-enamide] to `C=CC(=O)NCc1ccccc1S(=O)(=O)N1CCCC1` [2-L17, N-{[2-(pyrrolidine-1-sulfonyl)phenyl]methyl}prop-2-enamide], the viability at 48 h, 25 µM falls from 76.2% to 68.6%.

First: C=CC(=O)NCCc1nnc(C(C)C)s1 [2-L05, N-{2-[5-(propan-2-yl)-1,3,4-thiadiazol-2-yl]ethyl}prop-2-enamide]
Second: C=CC(=O)NCCNS(=O)(=O)c1cc(C)ccc1F [2-L11, N-[2-(2-fluoro-5-methylbenzenesulfonamido)ethyl]prop-2-enamide]
The viability at 48 h, 25 µM of the first is higher: 61.9% for the first, 39.4% for the second.

Compared with `C=CC(=O)N1CCC(C(=O)N2CCN(c3ccnc(C)n3)CC2)CC1` [2-L06, 1-{4-[4-(2-methylpyrimidin-4-yl)piperazine-1-carbonyl]piperidin-1-yl}prop-2-en-1-one], `C=CC(=O)N1CCC(C(=O)N2CCCC(C3OCCO3)C2)CC1` (stereo not drawn) [2-L16, 1-{4-[3-(1,3-dioxolan-2-yl)piperidine-1-carbonyl]piperidin-1-yl}prop-2-en-1-one] is lower in viability at 48 h, 25 µM: 88.5% for the first, 58% for the second.

First: C=CC(=O)N1CCC(C(=O)N2CCCC2C2OCCO2)CC1 (stereo not drawn) [2-L12, 1-{4-[2-(1,3-dioxolan-2-yl)pyrrolidine-1-carbonyl]piperidin-1-yl}prop-2-en-1-one]
Second: C=CC(=O)NCc1ccc2oc(=O)n(C)c2c1 [2-L15, N-[(3-methyl-2-oxo-2,3-dihydro-1,3-benzoxazol-5-yl)methyl]prop-2-enamide]
The viability at 48 h, 25 µM of the first is lower: 48.7% for the first, 55% for the second.
